Read-outs that look alike come from different tables or passages of the source.
Key:
Format in all cases: cell-based
[1] = test system: LNCaP; experiment: SRB colorimetric cell growth inhibition assay, LNCaP; conditions: LN-caP; for GI50: GI=growth inhibition, read-out: GI50 LN-caP; for CC50: cell killing (cytotoxic effect), read-out: LC50 LN-caP; for TGI LN-caP: total growth inhibition (cytostatic effect)
Summary of the method: (§1)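 Cells are kept under uninterrupted exposure to compound. Staining with sulforhodamine B then measures cell growth and viability. Triplicate data give mean ± SD, from which growth inhibition, total growth inhibition and lethal concentration values follow.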

[2] = test system: SK-BR-3; experiment: SRB colorimetric cell growth inhibition assay, SK-BR-3; conditions: SK-BR-3; for GI50: GI=growth inhibition, read-out: GI50 SK-BR-3; for CC50: cell killing (cytotoxic effect), read-out: LC50 SK-BR-3; for TGI SK-BR-3: total growth inhibition (cytostatic effect)
Summary of the method: as §1

[3] = test system: HeLa-APL; experiment: SRB colorimetric cell growth inhibition assay, HeLa-APL (aplidine resistant); conditions: HELA-APL; for GI50: GI=growth inhibition, read-out: GI50 HELA-APL; for CC50: cell killing (cytotoxic effect), read-out: LC50 HELA-APL; for TGI HELA-APL: total growth inhibition (cytostatic effect)
Summary of the method: as §1

[4] = test system: LoVo-Dox; experiment: SRB colorimetric cell growth inhibition assay, LoVo-Dox (MDR); conditions: LOVO-DOX; for GI50: GI=growth inhibition, read-out: GI50 LOVO-DOX; for CC50: cell killing (cytotoxic effect), read-out: LC50 LOVO-DOX; for TGI LOVO-DOX: total growth inhibition (cytostatic effect)
Summary of the method: as §1

[5] = test system: IGROV-ET; experiment: SRB colorimetric cell growth inhibition assay, IGROV-ET (ET-743 resistant); conditions: IGROV-ET; for GI50: GI=growth inhibition, read-out: GI50 IGROV-ET; for CC50: cell killing (cytotoxic effect), read-out: LC50 IGROV-ET; for TGI IGROV-ET: total growth inhibition (cytostatic effect)
Summary of the method: as §1

[6] = test system: LoVo; experiment: SRB colorimetric cell growth inhibition assay, LoVo; conditions: LOVO; for GI50: GI=growth inhibition, read-out: GI50 LOVO; for CC50: cell killing (cytotoxic effect), read-out: LC50 LOVO; for TGI LOVO: total growth inhibition (cytostatic effect)
Summary of the method: as §1

[7] = test system: K-562; experiment: SRB colorimetric cell growth inhibition assay, K-562; conditions: K-562; for GI50: GI=growth inhibition, read-out: GI50 K-562; for CC50: cell killing (cytotoxic effect), read-out: LC50 K-562; for TGI K-562: total growth inhibition (cytostatic effect)
Summary of the method: as §1

[8] = test system: PANC-1; experiment: SRB colorimetric cell growth inhibition assay, PANC-1; conditions: PANC-1; for GI50: GI=growth inhibition, read-out: GI50 PANC-1; for CC50: cell killing (cytotoxic effect), read-out: LC50 PANC-1; for TGI PANC-1: total growth inhibition (cytostatic effect)
Summary of the method: as §1

[9] = test system: SK-MEL-28; experiment: SRB colorimetric cell growth inhibition assay, SK-MEL-28; conditions: MEL-28; for GI50: GI=growth inhibition, read-out: GI50 MEL-28; for CC50: cell killing (cytotoxic effect), read-out: LC50 MEL-28; for TGI MEL-28: total growth inhibition (cytostatic effect)
Summary of the method: as §1

[10] = test system: HT-29; experiment: SRB colorimetric cell growth inhibition assay, HT-29; conditions: HT-29; for GI50: GI=growth inhibition, read-out: GI50 HT-29; for CC50: cell killing (cytotoxic effect), read-out: LC50 HT-29; for TGI HT-29: total growth inhibition (cytostatic effect)
Summary of the method: as §1

[11] = test system: IGROV; experiment: SRB colorimetric cell growth inhibition assay, IGROV; conditions: IGROV; for GI50: GI=growth inhibition, read-out: GI50 IGROV; for CC50: cell killing (cytotoxic effect), read-out: LC50 IGROV; for TGI IGROV: total growth inhibition (cytostatic effect)
Summary of the method: as §1

[12] = test system: A-549; experiment: SRB colorimetric cell growth inhibition assay, A-549; conditions: A-549; for GI50: GI=growth inhibition, read-out: GI50 A-549; for CC50: cell killing (cytotoxic effect), read-out: LC50 A-549; for TGI A-549: total growth inhibition (cytostatic effect)
Summary of the method: as §1

[13] = test system: HeLa; experiment: SRB colorimetric cell growth inhibition assay, HeLa; conditions: HELA; for GI50: GI=growth inhibition, read-out: GI50 HELA; for CC50: cell killing (cytotoxic effect), read-out: LC50 HELA; for TGI HELA: total growth inhibition (cytostatic effect)
Summary of the method: as §1

[14] = test system: DU-145; experiment: SRB colorimetric cell growth inhibition assay, DU-145; conditions: for GI50: GI=growth inhibition, read-out: GI50 DU-145; for CC50: cell killing (cytotoxic effect), read-out: LC50 DU-145
Summary of the method: as §1

SMILES: COc1cc2c(cc1O)oc(=O)c1c2c(-c2ccc(OC(=O)[C@H](C)N)c(OC)c2)c2c3cc(OC)c(O)cc3ccn21.Cl [Compound 238]
- GI50 [1]: 2130 nM
- CC50 [1]: 16500 nM
- TGI LN-caP [1]: 1.65E−05 Molar
- GI50 [2]: 153 nM
- CC50 [2]: 16500 nM
- TGI SK-BR-3 [2]: 1.61E−06 Molar
- GI50 [3]: 157 nM
- CC50 [3]: 1760 nM
- TGI HELA-APL [3]: 5.16E−07 Molar
- GI50 [4]: 2260 nM
- CC50 [4]: 16500 nM
- TGI LOVO-DOX [4]: 8.98E−07 Molar
- GI50 [5]: 41.3 nM
- CC50 [5]: 16500 nM
- TGI IGROV-ET [5]: 1.44E−07 Molar
- GI50 [6]: 57 nM
- CC50 [6]: 1290 nM
- TGI LOVO [6]: 2.26E−07 Molar
- GI50 [7]: 43.3 nM
- CC50 [7]: 1200 nM
- TGI K-562 [7]: 2.47E−07 Molar
- GI50 [8]: 25.4 nM
- CC50 [8]: 1610 nM
- TGI PANC-1 [8]: 2.50E−07 Molar
- GI50 [9]: 52.6 nM
- CC50 [9]: 12500 nM
- TGI MEL-28 [9]: 3.51E−07 Molar
- GI50 [10]: 2650 nM
- CC50 [10]: 16500 nM
- TGI HT-29 [10]: 1.06E−05 Molar
- GI50 [11]: 79.9 nM
- CC50 [11]: 1260 nM
- TGI IGROV [11]: 2.82E−07 Molar
- GI50 [12]: 45.8 nM
- CC50 [12]: 16500 nM
- TGI A-549 [12]: 4.38E−07 Molar
- GI50 [13]: 52.2 nM
- CC50 [13]: 1240 nM
- TGI HELA [13]: 1.31E−07 Molar
- GI50 ([14]; DU-145): 45.8 nM
- CC50 ([14]; DU-145): 16500 nM
- TGI DU-145 ([14]; DU-145, total growth inhibition (cytostatic effect)): 9.65E−08 Molar

SMILES: COc1cc(-c2c3c4cc(OC)c(OC(=O)[C@H](C)N)cc4oc(=O)c3n3ccc4c(OC(=O)[C@H](C)N)c(OC)c(OC)cc4c23)ccc1OC(=O)[C@H](C)N [Compound 191]
- GI50 ([1]; Homo sapiens, LNCaP): 244 nM
- CC50 [1]: 5360 nM
- TGI LN-caP [1]: 1.48E−06 Molar
- GI50 [2]: 555 nM
- CC50 [2]: 11700 nM
- TGI SK-BR-3 [2]: 3.66E−06 Molar
- GI50 [3]: 940 nM
- CC50 [3]: 5960 nM
- TGI HELA-APL [3]: 2.52E−06 Molar
- GI50 [4]: 785 nM
- CC50 [4]: 11700 nM
- TGI LOVO-DOX [4]: 1.17E−05 Molar
- GI50 [5]: 588 nM
- CC50 [5]: 11700 nM
- TGI IGROV-ET [5]: 6.96E−06 Molar
- GI50 [6]: 513 nM
- CC50 [6]: 7900 nM
- TGI LOVO [6]: 1.70E−06 Molar
- GI50 [7]: 129 nM
- CC50 [7]: 9490 nM
- TGI K-562 [7]: 1.69E−06 Molar
- GI50 [8]: 1270 nM
- CC50 [8]: 11700 nM
- TGI PANC-1 [8]: 9.66E−06 Molar
- GI50 [9]: 363 nM
- CC50 [9]: 11700 nM
- TGI MEL-28 [9]: 1.17E−05 Molar
- GI50 [10]: 6180 nM
- CC50 [10]: 11700 nM
- TGI HT-29 [10]: 1.17E−05 Molar
- GI50 [11]: 458 nM
- CC50 [11]: 11700 nM
- TGI IGROV [11]: 2.77E−06 Molar
- GI50 [12]: 573 nM
- CC50 [12]: 11700 nM
- TGI A-549 [12]: 1.17E−05 Molar
- GI50 [13]: 948 nM
- CC50 [13]: 8630 nM
- TGI HELA [13]: 2.96E−06 Molar
- CC50 ([14]; DU-145): 11700 nM
- GI50 ([14]; Homo sapiens, DU-145, DU-145): 62.1 nM
- IC (TGI) ([14]; Homo sapiens, DU-145, DU-145, total growth inhibition (cytostatic effect), read-out: TGI DU-145): 228 nM
